Results from publication PMC3798130 (Angewandte Chemie (International Ed. in English), 2013).

Columns and labels:
[1] = molecular target: T1, JMJD2E (KDM4E) (Homo sapiens, UniProt B2RXH2); experiment: MALDI-TOF MS activity assay; assay type: biochemical; details: 1 hour, 25 °C, pH 7.5, mass gain
T1 sequence (B2RXH2 1-506): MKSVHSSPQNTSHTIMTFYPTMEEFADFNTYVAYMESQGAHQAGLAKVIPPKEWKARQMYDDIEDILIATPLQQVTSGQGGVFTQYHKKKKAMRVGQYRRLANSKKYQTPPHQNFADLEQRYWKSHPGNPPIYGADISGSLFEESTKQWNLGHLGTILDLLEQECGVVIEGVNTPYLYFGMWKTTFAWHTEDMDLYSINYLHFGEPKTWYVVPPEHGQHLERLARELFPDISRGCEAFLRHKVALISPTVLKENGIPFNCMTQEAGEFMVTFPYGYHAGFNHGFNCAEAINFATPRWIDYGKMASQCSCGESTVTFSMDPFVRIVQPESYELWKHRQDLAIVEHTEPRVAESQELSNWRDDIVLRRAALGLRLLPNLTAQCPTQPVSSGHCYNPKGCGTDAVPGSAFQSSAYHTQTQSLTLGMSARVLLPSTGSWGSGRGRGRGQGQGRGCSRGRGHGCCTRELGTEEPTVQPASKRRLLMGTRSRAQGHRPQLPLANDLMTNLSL

[2] = molecular target: T1, JMJD2E (KDM4E); experiment: Kinetic parameters for reactions of lysine analogue peptides with JMJD2E; assay type: biochemical; details: MALDI-TOF initial rates

| Substance | mass of product greater than substrate peptide (hydroxylation) [1] | KM, Vmax and kcat compared with other peptides [2] |
| --- | --- | --- |
| ART-Lys(Me3)-QTAR-Lys(Me/iPr)-STGGKA [H3 Lysine-9(Me/iPr)] | 16 Da | – |
| ART-Lys(Me3)-QTAR-Lys(iPr)-STGGKA [H3 Lysine-9(iPr)] | 16 Da | higher than values for the other three peptides |
